# Assay results as given in patent publication US12049467B2 (The Johns Hopkins University, priority 2021, dated 2024).
# Biological target: T1, GABAA (α3β2γ2) subtype (Homo sapiens, UniProt P18507+P34903)
# T1 construct: expressed in transfected cells
# Assay: Automated patch-clamp (QPatch) modulation of GABA-activated currents in cells stably transfected with GABAA (α3β2γ2) channels
# Assay type: cell-based
# Conditions: stably transfected Ltk cells, 2.0 μM GABA (submaximal), whole-cell patch, holding potential −80 mV; Emax = upper asymptote of dose-response fit
# Protocol: Modulatory effects of the compounds of this disclosure were investigated using cells stably transfected with GABA-activated channels of the GABAA (α3β2γ2) subtype together with submaximal GABA concentrations. Expression of GABA receptor were induced by adding Dexamethasone to the cells for 24 to 48 h before experimentation. In general, cells were passaged at a confluence of about 80 to 90%. For electrophysiological measurements cells were harvested at a confluence of about 80 to 90% from sterile culture flasks containing culture complete medium. Cells were transferred as suspension in PBS to the QPatch 16X or QPatch HTX system to the centrifuge/washer directly. Cells were incubated at 37° C. in a humidified atmosphere with 5% CO2 (rel. humidity about 95%). The cells were continuously maintained in and passaged in sterile culture flasks containing a 1:1 mixture of Dulbecco's modified eagle medium and nutrient mixture D-MEM/F-12 (1×, liquid, with L-Glutamine), supplemented with 10% foetal bovine serum and 1.0% Penicillin/Streptomycin solution and neomycin. The 1× bath solution was made at least every 5 days out of a sterile lox bath solution, which had been prepared prior to the experimental start of the present study and stored at 1° C. to 9° C. The final bath solution included Sodium Chloride 137 mM, Potassium Chloride 4 mM, Calcium Chloride 1.8 mM, Magnesium Chloride 1 mM, HEPES 10 mM, D-Glucose 10 mM, pH (NaOH) 7.4. The 1× intracellular solution was thawed every day and includes Potassium Chloride 130 mM, Magnesium Chloride 1 mM, Mg-ATP 5 mM, HEPES 10 mM, EGTA 5 Mm, pH (KOH) 7.2. Automated patch-clamping: Cells were transferred as suspension in serum-free medium to the QPatch HTX system and kept in the cell storage tank during experiments. All solutions applied to cells including the intracellular solution were maintained at room temperature (19° C. to 30° C.). After formation of a Gigaohm seal between the patch electrodes and transfected individual Ltk cells were ruptured to assure electrical access to the cell interior (whole-cell patch-configuration). Inward currents were measured upon application of 2.0 μM GABA to patch-clamped cells for 4 s. During the entire experiment the cells were voltage-clamped at a holding potential of −80 mV. For the analysis of test items, GABAA receptors were stimulated by 2.0 μM GABA and test item combinations described below. Thirty-second prewash steps with test items was performed in between two agonist applications. The dose-response curve was fit with a sigmoidal three parameter equation current=Emax/1+10^((Log EC50−X)*H) where X is the compound concentration, Emax the upper asymptote, EC50 the concentration of test item at half maximal effect, and H is the Hill coefficient. SigmaPlot 11.0 was used for construction of curve.
# T1 sequence (P34903 29-492): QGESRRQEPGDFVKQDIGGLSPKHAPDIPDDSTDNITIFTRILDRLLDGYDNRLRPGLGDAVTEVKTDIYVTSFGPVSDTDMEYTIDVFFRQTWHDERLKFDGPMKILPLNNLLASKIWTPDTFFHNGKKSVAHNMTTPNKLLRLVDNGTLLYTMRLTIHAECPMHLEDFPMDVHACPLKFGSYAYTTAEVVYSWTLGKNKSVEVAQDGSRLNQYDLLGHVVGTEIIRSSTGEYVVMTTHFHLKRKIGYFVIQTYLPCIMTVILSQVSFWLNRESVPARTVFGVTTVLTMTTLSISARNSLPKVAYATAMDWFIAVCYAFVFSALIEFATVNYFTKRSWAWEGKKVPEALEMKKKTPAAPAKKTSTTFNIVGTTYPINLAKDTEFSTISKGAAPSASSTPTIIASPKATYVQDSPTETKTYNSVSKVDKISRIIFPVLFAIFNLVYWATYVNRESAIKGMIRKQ
# T1 sequence (P47870 25-512 partner limits assumed): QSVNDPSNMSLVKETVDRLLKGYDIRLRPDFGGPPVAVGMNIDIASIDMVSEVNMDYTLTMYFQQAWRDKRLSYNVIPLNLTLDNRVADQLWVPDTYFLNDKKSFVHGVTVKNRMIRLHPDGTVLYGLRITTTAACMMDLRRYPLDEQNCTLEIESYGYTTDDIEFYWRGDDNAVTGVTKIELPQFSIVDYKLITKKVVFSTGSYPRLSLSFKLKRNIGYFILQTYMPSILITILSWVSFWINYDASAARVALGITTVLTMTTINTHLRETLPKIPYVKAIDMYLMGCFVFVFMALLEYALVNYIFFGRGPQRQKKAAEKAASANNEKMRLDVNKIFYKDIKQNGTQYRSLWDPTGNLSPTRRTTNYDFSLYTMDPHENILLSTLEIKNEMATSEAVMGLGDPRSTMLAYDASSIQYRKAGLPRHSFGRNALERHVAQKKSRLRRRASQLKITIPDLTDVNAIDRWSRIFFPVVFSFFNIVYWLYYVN
# T1 sequence (P18507 40-475): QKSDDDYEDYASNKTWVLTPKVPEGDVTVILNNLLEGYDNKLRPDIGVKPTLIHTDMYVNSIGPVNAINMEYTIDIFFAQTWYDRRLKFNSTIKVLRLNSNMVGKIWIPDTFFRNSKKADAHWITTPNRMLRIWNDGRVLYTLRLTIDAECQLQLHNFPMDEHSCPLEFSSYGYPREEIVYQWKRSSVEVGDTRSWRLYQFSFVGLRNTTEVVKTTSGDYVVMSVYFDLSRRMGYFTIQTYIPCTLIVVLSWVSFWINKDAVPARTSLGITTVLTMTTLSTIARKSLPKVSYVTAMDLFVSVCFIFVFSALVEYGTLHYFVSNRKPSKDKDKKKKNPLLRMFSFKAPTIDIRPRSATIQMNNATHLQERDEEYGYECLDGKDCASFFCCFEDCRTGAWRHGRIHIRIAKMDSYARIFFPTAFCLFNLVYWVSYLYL
row,SMILES,Emax [%]
1,"O=C(O)c1cc2n(n1)-c1ccc(Cl)cc1C(c1ccccc1F)=NC2 [Example 1, 8-chloro-6-(2-fluorophenyl)-4H-pyrazolo[1,5-a][1,4]benzodiazepine-2-carboxylic acid]",> 100
2,"O=C(O)c1cc2n(n1)-c1ccc(SC(F)(F)F)cc1C(c1ccccc1F)=NC2 [Example 9, 6-(2-fluorophenyl)-8-(trifluoromethylsulfanyl)-4H-pyrazolo[1,5-a][1,4]benzodiazepine-2-carboxylic acid]",> 100
3,O=C(O)c1cc2n(n1)-c1ccc(Cl)cc1C(c1cccc(F)c1F)=NC2 [Example 16],> 100
4,"C#Cc1ccc2c(c1)C(c1ccccc1F)=NCc1cc(C(=O)O)nn1-2 [Example 2, 8-ethynyl-6-(2-fluorophenyl)-4H-pyrazolo[1,5-a][1,4]benzodiazepine-2-carboxylic acid]",> 100
5,O=C(O)c1cc2n(n1)-c1cc(Cl)ccc1C(c1ccccc1F)=NC2 [Example 12],< 50
6,"O=C(O)c1cc2n(n1)-c1ccc(Br)cc1C(c1ccccc1F)=NC2 [Example 7, 8-bromo-6-(2-fluorophenyl)-4H-pyrazolo[1,5-a][1,4]benzodiazepine-2-carboxylic acid]",> 100
7,"C[Si](C)(C)c1ccc2c(c1)C(c1ccccc1F)=NCc1cc(C(=O)O)nn1-2 [Example 8, 6-(2-fluorophenyl)-8-trimethylsilyl-4H-pyrazolo[1,5-a][1,4]benzodiazepine-2-carboxylic acid]",< 50
8,"CC1N=C(c2ccccc2F)c2cc(Cl)ccc2-n2nc(C(=O)O)cc21 (centres unmarked) [Example 20, 12-Chloro-9-(2-fluorophenyl)-7-methyl-2,3,8-triazatricyclo[8.4.0.0^2,6]tetradeca-1(10),3,5,8,11,13-hexaene-4-carboxylic acid]",> 100
9,"O=C(O)c1cc2n(n1)-c1ccc(Cl)cc1C(c1ccccc1Br)=NC2 [Example 13, 6-(2-bromophenyl)-8-chloro-4H-pyrazolo[1,5-a][1,4]benzodiazepine-2-carboxylic acid]",> 100
10,"O=C(O)c1cc2n(n1)-c1ccc(Cl)cc1C(c1ccccc1)=NC2 [Example 29, 8-chloro-6-phenyl-4H-benzo[f]pyrazolo[1,5-a][1,4]diazepine-2-carboxylic acid]",> 100
11,"O=C(O)c1cc2n(n1)-c1ccc(Cl)cc1C(c1ccccc1F)=NC2O (centres unmarked) [Example 24, 8-chloro-6-(2-fluorophenyl)-4-hydroxy-4H-benzo[f]pyrazolo[1,5-a][1,4]diazepine-2-carboxylic Acid]",< 50
12,"Cc1ccc2c(c1)C(c1ccccc1F)=NCc1c(C(=O)O)cnn1-2 [Example 18, 6-(2-fluorophenyl)-8-methyl-4H-pyrazolo[1,5-a][1,4]benzodiazepine-3-carboxylic acid]",> 100
13,"Cc1c(C(=O)O)nn2c1CN=C(c1ccccc1F)c1cc(Cl)ccc1-2 [Example 19, 12-Chloro-9-(2-fluorophenyl)-5-methyl-2,3,8-triazatricyclo[8.4.0.0^2,6]tetradeca-1(10),3,5,8,11,13-hexaene-4-carboxylic Acid]",> 100
14,"O=C(O)c1cc2n(n1)-c1ccc(C3CC3)cc1C(c1ccccc1F)=NC2 [Example 3, 8-cyclopropyl-6-(2-fluorophenyl)-4H-pyrazolo[1,5-a][1,4]benzodiazepine-2-carboxylic acid]",> 100
15,"O=C(O)c1cc2n(n1)-c1ccc(OC(F)(F)F)cc1C(c1ccccc1F)=NC2 [Example 11, 6-(2-fluorophenyl)-8-(trifluoromethoxy)-4H-pyrazolo[1,5-a][1,4]benzodiazepine-2-carboxylic acid]",> 100
16,"O=C(O)c1cc2n(n1)-c1ccc(Cl)cc1C(c1ccccc1Cl)=NC2 [Example 15, 8-chloro-6-(2-chlorophenyl)-4H-pyrazolo[1,5-a][1,4]benzodiazepine-2-carboxylic acid]",> 100
17,"NS(=O)(=O)NCCNC(=O)c1cnn2c1CN=C(c1ccccc1F)c1cc(Cl)ccc1-2 [Example 28, 8-chloro-6-(2-fluorophenyl)-N-[2-(sulfamoylamino)ethyl]-4H-pyrazolo[1,5-a][1,4]benzodiazepine-3-carboxamide]",> 100
18,"O=C(O)c1nn2c(c1Cl)CN=C(c1ccccc1F)c1cc(Cl)ccc1-2 [Example 22, 3,8-dichloro-6-(2-fluorophenyl)-4H-pyrazolo[1,5-a][1,4]benzodiazepine-2-carboxylic acid]",51 to 100
19,"NC(=O)NCCNC(=O)c1cnn2c1CN=C(c1ccccc1F)c1cc(Cl)ccc1-2 [Example 26, 8-chloro-6-(2-fluorophenyl)-N-(2-ureidoethyl)-4H-pyrazolo[1,5-a][1,4]benzodiazepine-3-carboxamide]",> 100
20,"O=C(O)c1cc2n(n1)-c1ccc(-c3ccccc3)cc1C(c1ccccc1F)=NC2 [Example 6, 6-(2-fluorophenyl)-8-phenyl-4H-pyrazolo[1,5-a][1,4]benzodiazepine-2-carboxylic acid]",< 50
21,"O=C(O)c1cc2n(n1)-c1ccccc1C(c1ccccc1F)=NC2 [Example 5, 6-(2-fluorophenyl)-4H-pyrazolo[1,5-a][1,4]benzodiazepine-2-carboxylic acid]",< 50
22,"O=C(O)c1cnn2c1CN=C(c1ccccc1F)c1cc(Cl)ccc1-2 [Example 17, 12-Chloro-9-(2-fluorophenyl)-2,3,8-triazatricyclo[8.4.0.0^2,6]tetradeca-1(10),3,5,8,11,13-hexaene-5-carboxylic Acid]",> 100
23,"NC(=O)NCCNC(=O)c1cc2n(n1)-c1ccc(Cl)cc1C(c1ccccc1F)=NC2 [Example 25, 8-chloro-6-(2-fluorophenyl)-N-(2-ureidoethyl)-4H-benzo[f]pyrazolo[1,5-a][1,4]diazepine-2-carboxamide]",51 to 100
24,"O=C(O)c1cc2n(n1)-c1ccc(Cl)cc1C(c1c(F)cccc1F)=NC2 [Example 14, 8-chloro-6-(2,6-difluorophenyl)-4H-pyrazolo[1,5-a][1,4]benzodiazepine-2-carboxylic acid]",51 to 100
25,"O=C(O)c1nn2c(c1Br)CN=C(c1ccccc1F)c1cc(Cl)ccc1-2 [Example 21, 3-bromo-8-chloro-6-(2-fluorophenyl)-4H-pyrazolo[1,5-a][1,4]benzodiazepine-2-carboxylic Acid]",> 100
26,"Cc1ccc2c(c1)C(c1ccccc1F)=NCc1cc(C(=O)O)nn1-2 [Example 4, 6-(2-fluorophenyl)-8-methyl-4H-pyrazolo[1,5-a][1,4]benzodiazepine-2-carboxylic acid]",> 100
27,"O=C(O)c1cc2n(n1)-c1ccc(C(F)(F)F)cc1C(c1ccccc1F)=NC2 [Example 10, 6-(2-fluorophenyl)-8-(trifluoromethyl)-4H-pyrazolo[1,5-a][1,4]benzodiazepine-2-carboxylic acid]",> 100
28,"NS(=O)(=O)NCCNC(=O)c1cc2n(n1)-c1ccc(Cl)cc1C(c1ccccc1F)=NC2 [Example 27, 8-chloro-6-(2-fluorophenyl)-N-[2-(sulfamoylamino)ethyl]-4H-pyrazolo[1,5-a][1,4]benzodiazepine-2-carboxamide]",51 to 100
29,"O=C(O)c1cc2n(n1)-c1ccc(Cl)cc1C(c1ccccc1F)=[N+]([O-])C2 [Example 23, 8-chloro-6-(2-fluorophenyl)-5-oxido-4H-pyrazolo[1,5-a][1,4]benzodiazepin-5-ium-2-carboxylic Acid]",> 100
